Data on eleven molecules can be found in patent US20250313572A1, “MACROCYCLIC MCL-1 INHIBITORS AND METHODS OF USE” (AbbVie Inc., priority 2017, published 2025).

Usually IC50 stands for the point on the concentration scale where inhibition reaches its midpoint. The Ki is the equilibrium dissociation constant of an inhibitor or competing ligand from its target.

The test system of assay [1] is NCI-H929 human multiple myeloma tumor cell line. Put plainly: NCI-H929 cell viability assay (CellTiter-Glo, 24 hours). The conditions noted are these: Homo sapiens, NCI-H929, 24 h, read-out: H929 Viability IC50 (μM, 10% FBS), 10% FBS, 24 hours of compound treatment. It is filed as cell-based.
Experimental: Each concentration was tested in duplicate at least 3 independent times. A luminescent signal proportional to the number of viable cells following 24 hours of compound treatment was determined using the CellTiter-Glo® Luminescent Cell Viability Assay according to the manufacturer's recommendations (Promega Corp., Madison, WI). The plates were read in a Perkin Elmer Envision using a Luminescence protocol. To generate dose response curves the data is normalized to percent viability by setting the averages of the staurosporine (10 μM) and DMSO only control wells to 0% and 100% viability respectively.
In the next assay the target is GST-MCL-1 (Homo sapiens, UniProt Q07820). Put plainly: TR-FRET MCL-1 binding assay (competition with probe F-Bak). Summed up:
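Displacement of F-Bak from GST-MCL-1 is detected by time-resolved FRET with a Tb-labelled anti-GST antibody, with excitation 340/35 nm and emission 520/525 and 495/510 nm, after 2 hours at room temperature. Compounds were titrated in 11 three-fold steps starting at 25 μM final, in buffer alone or in 10% HS.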
A general note: Time-resolved FRET reads energy transfer from a long-lived donor to a nearby acceptor.

The test system of assay [2] is AMO-1 human multiple myeloma tumor cell line. Put plainly: AMO-1 cell viability assay (CellTiter-Glo, 24 hours). The conditions noted are these: Homo sapiens, AMO1, 24 h, read-out: AMO-1 Viability IC50 (μM, 10% FBS), 10% FBS, 24 hours of compound treatment. It is filed as cell-based. (In general: Cellular ATP, detected with luciferase, serves as a proxy for viable cell number.)

[3] abbreviates: MCL-1 Binding Ki (nM, 10% HS), in the presence of 10% HS (human serum).
Setting [4] is: without HS, read-out: MCL-1 Binding Ki.

Where two headings read alike, the source gives them in different places.

Chain of GST-MCL-1 (Q07820 whole entry): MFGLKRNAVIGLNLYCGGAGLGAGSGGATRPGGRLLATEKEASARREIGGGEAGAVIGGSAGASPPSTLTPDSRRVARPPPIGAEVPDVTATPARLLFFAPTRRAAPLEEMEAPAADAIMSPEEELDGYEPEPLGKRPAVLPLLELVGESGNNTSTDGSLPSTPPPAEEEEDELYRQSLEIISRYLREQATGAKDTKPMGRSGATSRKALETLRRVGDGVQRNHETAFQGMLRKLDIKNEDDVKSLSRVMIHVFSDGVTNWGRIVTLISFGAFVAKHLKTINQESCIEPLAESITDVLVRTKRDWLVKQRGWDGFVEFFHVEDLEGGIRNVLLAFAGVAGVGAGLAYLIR

For the molecule `COCCOCCOCCOc1ccccc1-c1nccc(COc2ccc3cc2C[C@H](C(=O)O)Oc2ncnc4sc(-c5ccc(F)cc5)c(c24)-c2c(C)c(Cl)c(c(Cl)c2C)O[C@H](CN2CCN(C)CC2)CO3)n1` [Example 15, (7R,16R,21S)-19,23-dichloro-1-(4-fluorophenyl)-10-{[2-(2-{2-[2-(2-methoxyethoxy)ethoxy]ethoxy}phenyl)pyrimidin-4-yl]methoxy}-20,22-dimethyl-16-[(4-methylpiperazin-1-yl)methyl]-7,8,15,16-tetrahydro-18,21-etheno-9,13-(metheno)-6,14,17-trioxa-2-thia-3,5-diazacyclononadeca[1,2,3-cd]indene-7-carboxylic Acid], the values for the 50% inhibitory concentration (IC50) in assay [1] and in assay [2] were 0.000751 µM and 0.000524 µM, respectively. The values for the inhibitory constant (Ki) on GST-MCL-1 (setting [3]) and at GST-MCL-1 (setting [4]) were 0.152 nM and 0.015 nM, respectively.
As for `COCCOCCOCCOc1ccc(-c2nccc(COc3ccc4cc3C[C@H](C(=O)O)Oc3ncnc5sc(-c6ccc(F)cc6)c(c35)-c3c(C)c(Cl)c(c(Cl)c3C)O[C@H](CN3CCN(C)CC3)CO4)n2)cc1` [Example 16, (7R,16R)-19,23-dichloro-1-(4-fluorophenyl)-10-{[2-(4-{2-[2-(2-methoxyethoxy)ethoxy]ethoxy}phenyl)pyrimidin-4-yl]methoxy}-20,22-dimethyl-16-[(4-methylpiperazin-1-yl)methyl]-7,8,15,16-tetrahydro-18,21-etheno-13,9-(metheno)-6,14,17-trioxa-2-thia-3,5-diazacyclononadeca[1,2,3-cd]indene-7-carboxylic Acid], the results for the IC50 in assay [1] and in assay [2] were 0.000347 µM and 0.000177 µM, respectively. In addition, the values for the inhibition constant Ki at GST-MCL-1 (setting [3]) and on GST-MCL-1 (setting [4]) were 0.359 nM and 0.028 nM, respectively.
For `Cc1c(Cl)c2c(Cl)c(C)c1-c1c(-c3ccc(F)cc3)sc3ncnc(c13)O[C@@H](C(=O)O)Cc1cc(ccc1OCc1ccnc(-c3ccc(CCC(=O)O)cc3)n1)OC[C@@H](CN1CCN(C)CC1)O2` [Example 20, (7R,16R)-10-({2-[4-(2-carboxyethyl)phenyl]pyrimidin-4-yl}methoxy)-19,23-dichloro-1-(4-fluorophenyl)-20,22-dimethyl-16-[(4-methylpiperazin-1-yl)methyl]-7,8,15,16-tetrahydro-18,21-etheno-13,9-(metheno)-6,14,17-trioxa-2-thia-3,5-diazacyclononadeca[1,2,3-cd]indene-7-carboxylic Acid], the IC50 in assay [1] was 0.00804 µM; in assay [2], 0.00425 µM. For the same molecule, the inhibition constant Ki amounted to 0.165 nM on GST-MCL-1 (setting [3]) and 0.007 nM at GST-MCL-1 (setting [4]).
The matching figures for `Cc1c(Cl)c2c(Cl)c(C)c1-c1c(-c3ccc(F)cc3)sc3ncnc(c13)O[C@@H](C(=O)O)Cc1cc(ccc1OCc1ccnc(-c3ccc(OC[C@H](O)CO)cc3)n1)OC[C@@H](CN1CCN(C)CC1)O2` [Example 22, (7R,16R)-19,23-dichloro-10-[(2-{4-[(2R)-2,3-dihydroxypropoxy]phenyl}pyrimidin-4-yl)methoxy]-1-(4-fluorophenyl)-20,22-dimethyl-16-[(4-methylpiperazin-1-yl)methyl]-7,8,15,16-tetrahydro-18,21-etheno-13,9-(metheno)-6,14,17-trioxa-2-thia-3,5-diazacyclononadeca[1,2,3-cd]indene-7-carboxylic Acid]: 0.0018 µM, 0.00133 µM, 0.214 nM and 0.015 nM.
For `Cc1c(Cl)c2c(Cl)c(C)c1-c1c(-c3ccc(F)cc3)sc3ncnc(c13)O[C@@H](C(=O)O)Cc1cc(ccc1OCc1ccnc(-c3ccccc3OC[C@H](O)CO)n1)OC[C@@H](CN1CCN(C)CC1)O2` [Example 23, (7R,16R)-19,23-dichloro-10-[(2-{2-[(2R)-2,3-dihydroxypropoxy]phenyl}pyrimidin-4-yl)methoxy]-1-(4-fluorophenyl)-20,22-dimethyl-16-[(4-methylpiperazin-1-yl)methyl]-7,8,15,16-tetrahydro-18,21-etheno-13,9-(metheno)-6,14,17-trioxa-2-thia-3,5-diazacyclononadeca[1,2,3-cd]indene-7-carboxylic Acid], in that order: 0.00389 µM, 0.00222 µM, 0.238 nM and 0.018 nM.
Consider `Cc1c(Cl)c2c(Cl)c(C)c1-c1c(-c3ccc(F)cc3)sc3ncnc(c13)O[C@@H](C(=O)O)Cc1cc(ccc1OCc1ccnc(N3CCP(C)(=O)CC3)n1)OC[C@@H](CN1CCN(C)CC1)O2` [Example 25, (7R,16R)-19,23-dichloro-1-(4-fluorophenyl)-20,22-dimethyl-10-{[2-(4-methyl-4-oxo-1,4λ^5-azaphosphinan-1-yl)pyrimidin-4-yl]methoxy}-16-[(4-methylpiperazin-1-yl)methyl]-7,8,15,16-tetrahydro-18,21-etheno-13,9-(metheno)-6,14,17-trioxa-2-thia-3,5-diazacyclononadeca[1,2,3-cd]indene-7-carboxylic Acid], for which the figures for the IC50 in assay [1] and in assay [2] were 0.0808 µM and 0.0727 µM, respectively. The Ki at GST-MCL-1 (setting [3]) stood at 5.7 nM; at GST-MCL-1 (setting [4]), 0.844 nM.
Turning to `Cc1c(Cl)c2c(Cl)c(C)c1-c1c(-c3ccc(F)cc3)sc3ncnc(c13)O[C@@H](C(=O)O)Cc1cc(ccc1OCc1ccnc(-c3ccccc3S(C)(=N)=O)n1)OCC(CN1CCN(C)CC1)O2` (stereo partly drawn) [Example 26, (7R,16R)-19,23-dichloro-1-(4-fluorophenyl)-10-({2-[2-(S-methanesulfonimidoyl)phenyl]pyrimidin-4-yl}methoxy)-20,22-dimethyl-16-[(4-methylpiperazin-1-yl)methyl]-7,8,15,16-tetrahydro-18,21-etheno-13,9-(metheno)-6,14,17-trioxa-2-thia-3,5-diazacyclononadeca[1,2,3-cd]indene-7-carboxylic Acid], the IC50 in assay [1] came out at 0.00289 µM; in assay [2], 0.00112 µM. Besides, the Ki came to 0.11 nM on GST-MCL-1 (setting [3]) and 0.021 nM on GST-MCL-1 (setting [4]).
For the molecule `Cc1c2ccc(c1Cl)O[C@H](CN1CCN(C)CC1)COc1ccc(OCc3ccnc(-c4cccc(=O)n4C)n3)c(c1)C[C@H](C(=O)O)Oc1ncnc3sc(-c4ccc(F)cc4)c-2c13` [Example 28, (7R,16R)-19-chloro-1-(4-fluorophenyl)-20-methyl-10-{[2-(1-methyl-6-oxo-1,6-dihydropyridin-2-yl)pyrimidin-4-yl]methoxy}-16-[(4-methylpiperazin-1-yl)methyl]-7,8,15,16-tetrahydro-18,21-etheno-13,9-(metheno)-6,14,17-trioxa-2-thia-3,5-diazacyclononadeca[1,2,3-cd]indene-7-carboxylic Acid], the figures for the IC50 in assay [1] and in assay [2] were 0.00583 µM and 0.00269 µM, respectively. In addition, the values for the inhibitory constant (Ki) on GST-MCL-1 (setting [3]) and on GST-MCL-1 (setting [4]) were 0.027 nM and 0.021 nM, respectively.
Consider `COCCOCCOCCOCC1(c2nccc(COc3ccc4cc3C[C@H](C(=O)O)Oc3ncnc5sc(-c6ccc(F)cc6)c(c35)-c3c(C)c(Cl)c(c(Cl)c3C)O[C@H](CN3CCN(C)CC3)CO4)n2)CC1` [Example 29, (7R,16R)-19,23-dichloro-1-(4-fluorophenyl)-20,22-dimethyl-16-[(4-methylpiperazin-1-yl)methyl]-10-({2-[1-(2,5,8,11-tetraoxadodecan-1-yl)cyclopropyl]pyrimidin-4-yl}methoxy)-7,8,15,16-tetrahydro-18,21-etheno-13,9-(metheno)-6,14,17-trioxa-2-thia-3,5-diazacyclononadeca[1,2,3-cd]indene-7-carboxylic Acid], for which the concentration for half-maximal inhibition (IC50) in assay [1] amounted to 0.000942 µM; in assay [2] it was 0.000894 µM. Also, the inhibitory constant (Ki) at GST-MCL-1 (setting [3]) worked out at 1.21 nM; on GST-MCL-1 (setting [4]), 0.204 nM.
On to `Cc1c(Cl)c2c(Cl)c(C)c1-c1c(-c3ccc(F)cc3)sc3ncnc(c13)O[C@@H](C(=O)O)Cc1cc(ccc1OCc1ccnc(-c3ccc(S(C)(=N)=O)cc3)n1)OC[C@@H](CN1CCN(C)CC1)O2` (stereo partly drawn) [Example 30, (7R,16R)-19,23-dichloro-1-(4-fluorophenyl)-10-({2-[4-(S-methanesulfonimidoyl)phenyl]pyrimidin-4-yl}methoxy)-20,22-dimethyl-16-[(4-methylpiperazin-1-yl)methyl]-7,8,15,16-tetrahydro-18,21-etheno-13,9-(metheno)-6,14,17-trioxa-2-thia-3,5-diazacyclononadeca[1,2,3-cd]indene-7-carboxylic Acid], for which the IC50 was found to be 0.00356 µM in assay [1] and 0.00277 µM in assay [2]. In addition, the inhibitory constant (Ki) at GST-MCL-1 (setting [3]) worked out at 0.252 nM; on GST-MCL-1 (setting [4]), 0.033 nM.
On to `Cc1c(Cl)c2c(Cl)c(C)c1-c1c(-c3ccc(F)cc3)sc3ncnc(c13)O[C@@H](C(=O)O)Cc1cc(ccc1OCc1ccnc([C@H]3CC[C@@H](CC(=O)O)CC3)n1)OC[C@@H](CN1CCN(C)CC1)O2` [Example 31, (7R,16R)-10-({2-[(1 s,4s)-4-(carboxymethyl)cyclohexyl]pyrimidin-4-yl}methoxy)-19,23-dichloro-1-(4-fluorophenyl)-20,22-dimethyl-16-[(4-methylpiperazin-1-yl)methyl]-7,8,15,16-tetrahydro-18,21-etheno-13,9-(metheno)-6,14,17-trioxa-2-thia-3,5-diazacyclononadeca[1,2,3-cd]indene-7-carboxylic Acid], for which the IC50 amounted to 0.0133 µM in assay [1] and 0.00743 µM in assay [2]. Further, the inhibition constant Ki was 0.049 nM on GST-MCL-1 (setting [3]) and 0.004 nM at GST-MCL-1 (setting [4]).
